Reference: US5096923A, “Novel squalene synthetase inhibitors” (Merck & Co., Inc., priority 1990, dated 1992)
≈ marks a conversion by molar mass, not a printed value.

Legend:
[1] = tested on: A. flavus MF383; experiment: Antifungal microtiter inhibitor dilution assay (filamentous fungi), A. flavus; format: cell-based; settings: Aspergillus flavus, 42 hours, 28° C., read-out: Minimum Inhibitory Concentration
Method: (§1) The compounds are particularly active towards filamentous fungi and yeasts including Candida albicans and Crypt neoformans. The sensitivity of filamentous fungi and yeast was determined using inhibitor dilution assays in microtiter format. The compounds were dissolved in DMSO at 2 mg/ml and serially diluted in 0.1M phosphate buffer, pH 7.0 in the microtiter dish from 100 to 0.006 μg/ml. A standardized spore suspension for testing the filamentous fungi was prepared by inoculating Antibiotic Medium #3 containing 1.5% agar with spores such that 1.5×10^3 colony forming units were added per well. The microtiter wells were filled with 50 μl of buffer containing compound and 50 μl of inoculated medium. The sensitivity of yeasts was determined by inoculating yeast nitrogen base containing 1% dextrose (YNB/G) with aliquots of an overnight yeast culture grown in yeast morphology (YM) media at 35° C. and diluting in YNB/G to yield a final concentration of 1.5-7.5×10^3 colony forming units/well. One hundred fifty μl of inoculated media was added per well. To test the sensitivity of yeast, compound was solubilized in 10 percent aqueous DMSO at 2.56 mg/ml. The compound was diluted serially in YNB/G from 128 to 0.06 μg/ml. The wells were filled with 150 μl of drug containing media. […]

[2] = tested on: Fus. oxysporum MF4014; experiment: Antifungal microtiter inhibitor dilution assay (filamentous fungi), Fus. oxysporum; format: cell-based; settings: Fusarium oxysporum, 42 hours, 28° C., read-out: Minimum Inhibitory Concentration
Method: as §1

[3] = tested on: C. tropicalis MY1012; experiment: Antifungal microtiter inhibitor dilution assay (yeast), C. tropicalis; format: cell-based; settings: Candida tropicalis, 24 hours, 28° C., read-out: Minimum Inhibitory Concentration
Method: as §1

[4] = tested on: Pen. italicum MF2819; experiment: Antifungal microtiter inhibitor dilution assay (filamentous fungi), Pen. italicum; format: cell-based; settings: Penicillium italicum, 42 hours, 28° C., read-out: Minimum Inhibitory Concentration
Method: as §1

[5] = tested on: Crypt. neoformans MY1051; experiment: Antifungal microtiter inhibitor dilution assay (yeast), Crypt. neoformans; format: cell-based; settings: Cryptococcus neoformans, 24 hours, 28° C., read-out: Minimum Inhibitory Concentration
Method: as §1

[6] = tested on: C. albicans MY1055; experiment: Antifungal microtiter inhibitor dilution assay (yeast), C. albicans; format: cell-based; settings: Candida albicans, 24 hours, 28° C., read-out: Minimum Inhibitory Concentration
Method: as §1

[7] = tested on: A. niger MF442; experiment: Antifungal microtiter inhibitor dilution assay (filamentous fungi), A. niger; format: cell-based; settings: Aspergillus niger, 42 hours, 28° C., read-out: Minimum Inhibitory Concentration
Method: as §1

[8] = target: T1, Squalene Synthetase (Rattus norvegicus, UniProt Q02769); experiment: Squalene synthetase assay (rat liver microsomes, [4-14C]farnesyl-pyrophosphate); format: biochemical; settings: 30° C., 20 minutes, read-out: Squalene Synthetase ID50
T1 construct: The livers from these rats were homogenized in 5 volumes (ml/g) of ice cold 50 mM HEPES; from tissue; host or cells: rat liver microsomes (male Charles River CD rats fed 0.1% lovastatin for 4 days)
T1 sequence (Q02769 1-416): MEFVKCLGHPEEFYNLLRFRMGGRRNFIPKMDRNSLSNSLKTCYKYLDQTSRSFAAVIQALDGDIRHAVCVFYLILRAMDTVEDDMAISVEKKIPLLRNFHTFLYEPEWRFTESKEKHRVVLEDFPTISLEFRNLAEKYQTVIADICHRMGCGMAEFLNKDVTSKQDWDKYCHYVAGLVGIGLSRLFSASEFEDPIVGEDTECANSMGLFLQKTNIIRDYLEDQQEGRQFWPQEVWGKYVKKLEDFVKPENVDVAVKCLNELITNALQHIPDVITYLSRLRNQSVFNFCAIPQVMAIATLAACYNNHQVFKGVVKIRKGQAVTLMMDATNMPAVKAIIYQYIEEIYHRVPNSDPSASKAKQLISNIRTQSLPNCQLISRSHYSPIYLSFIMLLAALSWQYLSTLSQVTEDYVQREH
Method: The intrinsic squalene synthetase inhibitory activity of representative compounds of this invention was measured by the standard in vitro protocol described below:
Male, Charles River CD rats (120 to 150 g) were fed a diet containing 0.1% lovastatin for 4 days. The livers from these rats were homogenized in 5 volumes (ml/g) of ice cold 50 mM HEPES (4-(2 -hydroxyethyl)-1-piperazine-ethanesulfonic acid), 5 mM EDTA(ethylenediaminetetraacetic acid) pH 7.5 with a Potter-Elvehjem type tissue grinder. The homogenate was centrifuged twice at 20,000×g for 15 minutes at 4° C., discarding the pellet each time. The supernatant was then centrifuged at 100,000×g for 1 hour at 4° C. The resulting microsomal pellet was resuspended in a volume of the above homogenizing buffer equal to one-fifth the volume of the original homogenate. This microsomal preparation has a protein concentration of about 7 mg/ml. The microsomal suspensions were stored in aliquots at -70° C. Squalene synthetase activity in these aliquots is stable for at least several months.
Prenyl transferase was purified to use in the enzymatic synthesis of radiolabelled farnesyl pyrophosphate. Prenyl transferase was assayed by the method of Rilling (Methods in Enzymology 110, 125-129 (1985)) and a unit of activity is defined as the amount of enzyme that will produce 1 μmole of farnesyl pyrophosphate per minute at 30° C. in the standard assay. […]

[9] = tested on: C. parapsilosis MY1010; experiment: Antifungal microtiter inhibitor dilution assay (yeast), C. parapsilosis; format: cell-based; settings: Lodderomyces parapsilosis, 24 hours, 28° C., read-out: Minimum Inhibitory Concentration
Method: as §1

[10] = tested on: Coch. miyabeanus MF4626; experiment: Antifungal microtiter inhibitor dilution assay (filamentous fungi), Coch. miyabeanus; format: cell-based; settings: Bipolaris oryzae, MF4626, 42 h, read-out: Minimum Inhibitory Concentration
Method: as §1

[11] = tested on: A. fumigatus MF4839; experiment: Antifungal microtiter inhibitor dilution assay (filamentous fungi), A. fumigatus; format: cell-based; settings: Aspergillus fumigatus, 42 hours, 28° C., read-out: Minimum Inhibitory Concentration
Method: as §1

SMILES: C=C(CCC12OC(C(=O)OC)C(O)(C(=O)OC)C(C(=O)OC)(O1)C(OC(=O)C=CC(C)CC(C)CC)C2O)C(OC(C)=O)C(C)Cc1ccccc1 (centres unmarked) [Compound B]
- MIC [1]: 6.2 µg/mL (≈ 8.46 µM)
- MIC [2]: > 100 µg/mL
- MIC [3]: 4 µg/mL (≈ 5.46 µM)
- MIC [4]: 6.2 µg/mL (≈ 8.46 µM)
- MIC [5]: 1 µg/mL (≈ 1.36 µM)
- MIC [6]: 8 µg/mL (≈ 10.9 µM)
- MIC [7]: 25 µg/mL (≈ 34.1 µM)
- IC50 [8]: 5 µM
- MIC [9]: 8 µg/mL (≈ 10.9 µM)
- MIC [10]: 1.6 µg/mL (≈ 2.18 µM)
- MIC [11]: 6.2 µg/mL (≈ 8.46 µM)
